Key:
[1] = target: T1, Human opioid (ORL1) (Homo sapiens, UniProt P41146); assay: Radioligand binding, human opioid ORL1 membranes, FlashPlate, [125I]-Nociceptin; conditions: compound at 10 μM; [125I]-Nociceptin
T1 construct: purchased Perkin Elmer Biosignal
Procedure, shortened: (§1)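 Cloned human receptor membranes were coated onto FlashPlate wells and incubated with radioligand and compound (added from a 0.5 mM DMSO daughter plate) for 1 hour at room temperature in the dark. Scintillation counting gave percent inhibition, with DMSO defining total and reference ligand defining non-specific binding.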

[2] = target: T2, Human neuropeptide Y (NPY-Y1) (Homo sapiens, UniProt P25929); assay: Radioligand binding, human neuropeptide Y NPY-Y1 membranes, FlashPlate, [125I]-PYY; conditions: compound at 10 μM; [125I]-PYY
T2 construct: purchased Perkin Elmer Biosignal
T2 sequence (P25929 1-384): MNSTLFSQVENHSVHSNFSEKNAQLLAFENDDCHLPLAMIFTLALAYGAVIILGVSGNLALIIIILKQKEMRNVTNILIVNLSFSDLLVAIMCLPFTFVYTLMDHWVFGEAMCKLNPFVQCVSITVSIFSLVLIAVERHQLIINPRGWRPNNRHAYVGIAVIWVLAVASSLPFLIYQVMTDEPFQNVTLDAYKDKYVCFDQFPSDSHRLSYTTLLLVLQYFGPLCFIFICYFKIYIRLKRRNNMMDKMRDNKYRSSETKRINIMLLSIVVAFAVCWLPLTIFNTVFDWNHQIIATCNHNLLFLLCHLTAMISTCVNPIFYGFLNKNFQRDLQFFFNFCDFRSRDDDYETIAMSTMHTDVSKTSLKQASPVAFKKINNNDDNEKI
Procedure, shortened: as §1

[3] = target: T3, Human δ-opioid (DOP) (Homo sapiens, UniProt P41143); assay: Radioligand binding, human δ-opioid (DOP) membranes, FlashPlate, [3H]-Bremazocine; conditions: compound at 10 μM; [3H]-Bremazocine
T3 construct: purchased Perkin Elmer Biosignal
T3 sequence (P41143 whole entry): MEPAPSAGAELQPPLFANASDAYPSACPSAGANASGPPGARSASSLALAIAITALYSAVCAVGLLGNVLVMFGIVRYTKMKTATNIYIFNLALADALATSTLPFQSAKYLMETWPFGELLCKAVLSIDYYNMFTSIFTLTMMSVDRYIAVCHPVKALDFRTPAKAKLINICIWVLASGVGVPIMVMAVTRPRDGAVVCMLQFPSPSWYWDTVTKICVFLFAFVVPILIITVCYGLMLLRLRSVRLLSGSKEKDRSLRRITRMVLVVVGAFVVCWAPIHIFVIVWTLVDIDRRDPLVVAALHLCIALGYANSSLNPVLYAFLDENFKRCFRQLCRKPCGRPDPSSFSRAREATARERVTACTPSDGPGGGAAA
Procedure, shortened: as §1

[4] = target: T4, Human μ-opioid (MOP) (Homo sapiens, UniProt P35372); assay: Radioligand binding, human μ-opioid (MOP) membranes, FlashPlate, [3H]-Naloxone; conditions: compound at 10 μM; [3H]-Naloxone
T4 construct: purchased Perkin Elmer Biosignal
T4 sequence (P35372 whole entry): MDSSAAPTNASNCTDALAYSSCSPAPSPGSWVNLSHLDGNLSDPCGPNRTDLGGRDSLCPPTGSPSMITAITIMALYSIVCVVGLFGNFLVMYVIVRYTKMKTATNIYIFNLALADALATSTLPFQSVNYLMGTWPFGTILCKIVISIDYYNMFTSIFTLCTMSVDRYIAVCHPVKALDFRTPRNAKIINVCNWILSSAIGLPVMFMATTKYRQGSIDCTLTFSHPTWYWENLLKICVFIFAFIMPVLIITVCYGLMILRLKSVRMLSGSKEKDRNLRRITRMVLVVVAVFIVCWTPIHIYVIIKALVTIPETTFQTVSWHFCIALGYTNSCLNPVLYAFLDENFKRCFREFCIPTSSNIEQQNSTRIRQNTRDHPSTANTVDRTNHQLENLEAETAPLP
Procedure, shortened: as §1

[5] = target: T5, Human neurokinin (NK1) (Homo sapiens, UniProt P25103); assay: Radioligand binding, human neurokinin NK1 membranes, filtration, [125I]-Substance P; conditions: compound at 10 μM; [125I]-Substance P
T5 construct: purchased Perkin Elmer Biosignal
T5 sequence (P25103 whole entry): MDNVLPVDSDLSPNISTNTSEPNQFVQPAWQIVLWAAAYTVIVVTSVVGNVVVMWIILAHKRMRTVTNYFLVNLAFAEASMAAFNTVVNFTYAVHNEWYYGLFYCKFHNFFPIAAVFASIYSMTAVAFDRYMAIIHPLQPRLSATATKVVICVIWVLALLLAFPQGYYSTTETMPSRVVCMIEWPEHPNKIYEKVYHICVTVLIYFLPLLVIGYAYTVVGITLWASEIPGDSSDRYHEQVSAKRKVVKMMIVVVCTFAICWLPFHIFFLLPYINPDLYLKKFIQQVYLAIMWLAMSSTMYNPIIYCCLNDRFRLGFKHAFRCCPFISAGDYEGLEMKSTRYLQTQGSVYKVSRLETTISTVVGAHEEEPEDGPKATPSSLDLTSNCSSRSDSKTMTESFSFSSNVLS
Procedure, shortened: (§2)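 Filtration binding on cloned human receptor membranes (1 Unit/well), [125I]-Substance P for NK1 and [3H]-Diprenorphine for KOP, 1 h at room temperature. Filters PEI-presoaked, washed with cold 50 mM Tris-HCl pH 7.4, counted by scintillation; percent inhibition calculated, reference ligand defining non-specific binding.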

[6] = target: T6, Human melanin-concentrating hormone (MCH1) (Homo sapiens, UniProt Q99705); assay: Radioligand binding, human melanin-concentrating hormone MCH1 membranes, FlashPlate, [125I]-S36057; conditions: compound at 10 μM, [125I]-S36057
T6 construct: purchased Perkin Elmer Biosignal
T6 sequence (Q99705 whole entry): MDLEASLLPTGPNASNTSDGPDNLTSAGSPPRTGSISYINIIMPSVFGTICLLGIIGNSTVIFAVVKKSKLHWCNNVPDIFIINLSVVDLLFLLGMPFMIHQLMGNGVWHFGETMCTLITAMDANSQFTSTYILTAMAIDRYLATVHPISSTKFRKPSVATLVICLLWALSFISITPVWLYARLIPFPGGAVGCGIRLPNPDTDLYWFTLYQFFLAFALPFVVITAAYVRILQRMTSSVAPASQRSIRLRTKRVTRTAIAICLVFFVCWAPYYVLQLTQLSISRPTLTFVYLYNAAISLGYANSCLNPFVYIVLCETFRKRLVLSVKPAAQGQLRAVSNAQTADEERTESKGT
Procedure, shortened: as §1

[7] = target: T7, Human Melanocortin (MC3) (Homo sapiens, UniProt P41968); assay: Radioligand binding, human melanocortin MC3 membranes, FlashPlate, [125I]-NDP-αMSH; conditions: compound at 10 μM; [125I]-NDP-αMSH
T7 construct: purchased Perkin Elmer Biosignal
T7 sequence (P41968 whole entry): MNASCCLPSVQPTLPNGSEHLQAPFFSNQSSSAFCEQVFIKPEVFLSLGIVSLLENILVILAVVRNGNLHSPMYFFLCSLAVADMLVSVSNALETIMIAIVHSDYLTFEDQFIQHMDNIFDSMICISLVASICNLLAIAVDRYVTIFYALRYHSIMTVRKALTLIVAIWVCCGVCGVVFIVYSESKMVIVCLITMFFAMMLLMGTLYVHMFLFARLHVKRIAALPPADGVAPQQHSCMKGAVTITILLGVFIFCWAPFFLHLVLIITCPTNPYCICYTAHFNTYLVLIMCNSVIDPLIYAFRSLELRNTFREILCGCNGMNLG
Procedure, shortened: as §1

[8] = target: T8, Human melanocortin (MC5) (Homo sapiens, UniProt P33032); assay: Radioligand binding, human melanocortin MC5 membranes, FlashPlate, [125I]-NDP-αMSH; conditions: compound at 10 μM; [125I]-NDP-αMSH
T8 construct: purchased Perkin Elmer Biosignal
T8 sequence (P33032 whole entry): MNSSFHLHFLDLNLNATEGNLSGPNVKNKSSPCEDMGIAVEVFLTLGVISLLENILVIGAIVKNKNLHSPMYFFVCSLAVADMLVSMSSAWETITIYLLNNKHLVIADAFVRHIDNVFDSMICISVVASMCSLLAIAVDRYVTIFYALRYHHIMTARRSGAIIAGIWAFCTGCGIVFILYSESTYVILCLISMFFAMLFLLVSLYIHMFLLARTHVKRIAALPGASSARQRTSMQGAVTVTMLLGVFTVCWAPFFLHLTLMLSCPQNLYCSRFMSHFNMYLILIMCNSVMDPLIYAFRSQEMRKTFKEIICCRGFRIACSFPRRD
Procedure, shortened: as §1

[9] = target: T9, Mouse urotensin (mUR2) (Mus musculus, UniProt Q8VIH9); assay: Radioligand binding, mouse urotensin mUR2 membranes, FlashPlate, [125I]-Urotensin II; conditions: compound at 10 μM; [125I]-Urotensin II
T9 construct: purchased Perkin Elmer Biosignal
T9 sequence (Q8VIH9 1-385): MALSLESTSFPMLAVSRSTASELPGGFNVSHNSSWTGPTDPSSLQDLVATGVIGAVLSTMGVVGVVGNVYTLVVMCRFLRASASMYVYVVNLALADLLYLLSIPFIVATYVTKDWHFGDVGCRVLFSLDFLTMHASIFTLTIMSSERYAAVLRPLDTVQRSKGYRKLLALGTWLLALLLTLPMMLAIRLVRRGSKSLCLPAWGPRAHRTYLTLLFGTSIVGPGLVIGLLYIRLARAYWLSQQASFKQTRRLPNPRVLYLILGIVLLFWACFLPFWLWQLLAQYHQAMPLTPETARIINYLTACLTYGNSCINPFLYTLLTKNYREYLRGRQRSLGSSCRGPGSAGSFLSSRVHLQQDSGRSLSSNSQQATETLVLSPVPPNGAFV
Procedure, shortened: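 Cloned mouse urotensin (mUR2) receptor membranes from Perkin Elmer Biosignal were immobilized in FlashPlate microplates using a proprietary coating. Each well got 19.5 μl buffer, then 0.5 μl of DMSO, reference ligand, or compound. Adding 5 μl of [125I]-Urotensin II, diluted to 5× final concentration in binding buffer, started binding. Plates were sealed with TopSeal-A and incubated 1 hour at room temperature in the dark. Wells were counted for 30 seconds each on a TopCount after a 60-second delay, and percentage inhibition was calculated.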

[10] = target: T10, Human Melanocortin (MC4) (Homo sapiens, UniProt P32245); assay: Radioligand binding, human melanocortin MC4 membranes, FlashPlate, [125I]-NDP-αMSH; conditions: compound at 10 μM; [125I]-NDP-αMSH
T10 construct: purchased Perkin Elmer Biosignal
T10 sequence (P32245 whole entry): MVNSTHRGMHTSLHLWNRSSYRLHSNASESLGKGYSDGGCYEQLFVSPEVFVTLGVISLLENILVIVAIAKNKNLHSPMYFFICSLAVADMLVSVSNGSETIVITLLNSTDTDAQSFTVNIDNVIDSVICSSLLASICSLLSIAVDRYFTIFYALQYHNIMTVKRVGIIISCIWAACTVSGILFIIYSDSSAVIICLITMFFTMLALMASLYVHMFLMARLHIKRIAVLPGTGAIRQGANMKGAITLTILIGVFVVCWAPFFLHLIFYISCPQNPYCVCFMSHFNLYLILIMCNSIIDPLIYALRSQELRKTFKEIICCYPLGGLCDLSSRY
Procedure, shortened: as §1

[11] = target: T11, Human κ-Opioid (KOP) (Homo sapiens, UniProt P41145); assay: Radioligand binding, human κ-opioid (KOP) membranes, filtration, [3H]-Diprenorphine; conditions: compound at 10 μM; [3H]-Diprenorphine
T11 construct: purchased Perkin Elmer Biosignal
T11 sequence (P41145 whole entry): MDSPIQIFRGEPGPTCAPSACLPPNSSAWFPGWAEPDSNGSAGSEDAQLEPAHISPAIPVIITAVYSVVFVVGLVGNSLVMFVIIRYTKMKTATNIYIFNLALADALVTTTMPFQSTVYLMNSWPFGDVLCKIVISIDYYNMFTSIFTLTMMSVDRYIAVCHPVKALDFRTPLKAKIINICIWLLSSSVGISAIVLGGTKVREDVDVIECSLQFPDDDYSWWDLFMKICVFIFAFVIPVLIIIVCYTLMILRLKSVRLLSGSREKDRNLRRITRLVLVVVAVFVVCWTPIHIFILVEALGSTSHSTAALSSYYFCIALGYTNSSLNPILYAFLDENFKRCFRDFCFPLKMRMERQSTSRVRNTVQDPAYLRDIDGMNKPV
Procedure, shortened: as §2

T1 sequence (P41146 whole entry): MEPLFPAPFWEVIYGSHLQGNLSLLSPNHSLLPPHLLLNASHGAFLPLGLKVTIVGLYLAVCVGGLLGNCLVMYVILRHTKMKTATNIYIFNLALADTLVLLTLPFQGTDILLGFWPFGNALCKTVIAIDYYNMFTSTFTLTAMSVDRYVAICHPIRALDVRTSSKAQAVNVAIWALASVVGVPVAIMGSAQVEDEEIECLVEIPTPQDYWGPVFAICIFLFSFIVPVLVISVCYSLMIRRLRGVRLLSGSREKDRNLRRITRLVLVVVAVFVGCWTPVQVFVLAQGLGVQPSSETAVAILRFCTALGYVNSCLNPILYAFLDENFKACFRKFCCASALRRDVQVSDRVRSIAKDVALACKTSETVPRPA

CSC1O[C@H](COCc2ccc(Cl)cc2)[C@@H](O)[C@@H](OCc2ccc(-c3ccccc3)cc2)[C@H]1NC(=O)CCNC(=N)N (stereo partly drawn) [compound 291]
A10: inhibition of radioligand binding, human opioid (ORL1) [1]: − (“−” indicates less than 50% inhibition at 10 μM) | A9: inhibition of radioligand binding, human neuropeptide Y (NPY-Y1) [2]: − (“−” indicates less than 50% inhibition at 10 μM) | A1: inhibition of radioligand binding, human δ-opioid (DOP) [3]: − (“−” indicates less than 50% inhibition at 10 μM) | A7: inhibition of radioligand binding, human μ-opioid (MOP) [4]: − (“−” indicates less than 50% inhibition at 10 μM) | A8: inhibition of radioligand binding, human neurokinin (NK1) [5]: + (“+” indicates greater than 50% inhibition at 10 μM) | A6: inhibition of radioligand binding, human melanin-concentrating hormone (MCH1) [6]: − (“−” indicates less than 50% inhibition at 10 μM) | A3: inhibition of radioligand binding, human melanocortin (MC3) [7]: − (“−” indicates less than 50% inhibition at 10 μM) | A5: inhibition of radioligand binding, human melanocortin (MC5) [8]: − (“−” indicates less than 50% inhibition at 10 μM) | A11: inhibition of radioligand binding, mouse urotensin (mUR2) [9]: − (“−” indicates less than 50% inhibition at 10 μM) | A4: inhibition of radioligand binding, human melanocortin (MC4) [10]: + (“+” indicates greater than 50% inhibition at 10 μM) | A2: inhibition of radioligand binding, human κ-opioid (KOP) [11]: − (“−” indicates less than 50% inhibition at 10 μM)

CO[C@H]1[C@H](O)[C@@H](COCc2ccc3ccccc3c2)OC(OCc2ccc(Cl)cc2)[C@@H]1NC(=O)CCCNC(=N)N (stereo partly drawn) [compound 100]
A10 radioligand binding, percentage inhibition [1]: + (“+” indicates greater than 50% inhibition at 10 μM) | A9 radioligand binding, percentage inhibition [2]: − (“−” indicates less than 50% inhibition at 10 μM) | A1 radioligand binding, percentage inhibition [3]: − (“−” indicates less than 50% inhibition at 10 μM) | A7 radioligand binding, percentage inhibition [4]: + (“+” indicates greater than 50% inhibition at 10 μM) | A8 radioligand binding, percentage inhibition [5]: + (“+” indicates greater than 50% inhibition at 10 μM) | A6 radioligand binding, percentage inhibition [6]: + (“+” indicates greater than 50% inhibition at 10 μM) | A3 radioligand binding, percentage inhibition [7]: + (“+” indicates greater than 50% inhibition at 10 μM) | A5 radioligand binding, percentage inhibition [8]: + (“+” indicates greater than 50% inhibition at 10 μM) | A11 radioligand binding, percentage inhibition [9]: − (“−” indicates less than 50% inhibition at 10 μM) | A4 radioligand binding, percentage inhibition [10]: + (“+” indicates greater than 50% inhibition at 10 μM) | A2 radioligand binding, percentage inhibition [11]: − (“−” indicates less than 50% inhibition at 10 μM)

CO[C@H]1[C@H](O)[C@@H](COCc2ccc3ccccc3c2)OC(OCc2ccc(Cl)cc2)[C@@H]1NC(=O)CNC(=N)N (stereo partly drawn) [compound 97]
A10 radioligand binding, percentage inhibition [1]: + (“+” indicates greater than 50% inhibition at 10 μM) | A9 radioligand binding, percentage inhibition [2]: − (“−” indicates less than 50% inhibition at 10 μM) | A1 radioligand binding, percentage inhibition [3]: − (“−” indicates less than 50% inhibition at 10 μM) | A7 radioligand binding, percentage inhibition [4]: − (“−” indicates less than 50% inhibition at 10 μM) | A8 radioligand binding, percentage inhibition [5]: + (“+” indicates greater than 50% inhibition at 10 μM) | A6 radioligand binding, percentage inhibition [6]: − (“−” indicates less than 50% inhibition at 10 μM) | A3 radioligand binding, percentage inhibition [7]: + (“+” indicates greater than 50% inhibition at 10 μM) | A5 radioligand binding, percentage inhibition [8]: + (“+” indicates greater than 50% inhibition at 10 μM) | A11 radioligand binding, percentage inhibition [9]: − (“−” indicates less than 50% inhibition at 10 μM) | A4 radioligand binding, percentage inhibition [10]: + (“+” indicates greater than 50% inhibition at 10 μM) | A2 radioligand binding, percentage inhibition [11]: − (“−” indicates less than 50% inhibition at 10 μM)

NCCCC(=O)NC1C(OCc2ccc(Cl)cc2)OC(COCc2ccc3ccccc3c2)C(O)C1OCc1ccc(Cl)cc1 (single isomer, unassigned) [compound 490]
A10: inhibition of radioligand binding, human opioid (ORL1) [1]: + (“+” indicates greater than 50% inhibition at 10 μM) | A9: inhibition of radioligand binding, human neuropeptide Y (NPY-Y1) [2]: − (“−” indicates less than 50% inhibition at 10 μM) | A1: inhibition of radioligand binding, human δ-opioid (DOP) [3]: − (“−” indicates less than 50% inhibition at 10 μM) | A7: inhibition of radioligand binding, human μ-opioid (MOP) [4]: + (“+” indicates greater than 50% inhibition at 10 μM) | A8: inhibition of radioligand binding, human neurokinin (NK1) [5]: + (“+” indicates greater than 50% inhibition at 10 μM) | A6: inhibition of radioligand binding, human melanin-concentrating hormone (MCH1) ([6]; 10 µM): + (“+” indicates greater than 50% inhibition at 10 μM) | A3: inhibition of radioligand binding, human melanocortin (MC3) [7]: + (“+” indicates greater than 50% inhibition at 10 μM) | A5: inhibition of radioligand binding, human melanocortin (MC5) [8]: + (“+” indicates greater than 50% inhibition at 10 μM) | A11: inhibition of radioligand binding, mouse urotensin (mUR2) [9]: − (“−” indicates less than 50% inhibition at 10 μM) | A4: inhibition of radioligand binding, human melanocortin (MC4) [10]: + (“+” indicates greater than 50% inhibition at 10 μM) | A2: inhibition of radioligand binding, human κ-opioid (KOP) [11]: − (“−” indicates less than 50% inhibition at 10 μM)

COC[C@H]1OC(OCc2ccc3ccccc3c2)[C@H](NC(=O)CCCN)[C@@H](OCc2ccc(Cl)cc2)[C@@H]1O (stereo partly drawn) [compound 340]
A10: inhibition of radioligand binding, human opioid (ORL1) [1]: − (“−” indicates less than 50% inhibition at 10 μM) | A9: inhibition of radioligand binding, human neuropeptide Y (NPY-Y1) [2]: − (“−” indicates less than 50% inhibition at 10 μM) | A1: inhibition of radioligand binding, human δ-opioid (DOP) [3]: − (“−” indicates less than 50% inhibition at 10 μM) | A7: inhibition of radioligand binding, human μ-opioid (MOP) [4]: − (“−” indicates less than 50% inhibition at 10 μM) | A8: inhibition of radioligand binding, human neurokinin (NK1) [5]: + (“+” indicates greater than 50% inhibition at 10 μM) | A6: inhibition of radioligand binding, human melanin-concentrating hormone (MCH1) [6]: − (“−” indicates less than 50% inhibition at 10 μM) | A3: inhibition of radioligand binding, human melanocortin (MC3) [7]: − (“−” indicates less than 50% inhibition at 10 μM) | A5: inhibition of radioligand binding, human melanocortin (MC5) [8]: − (“−” indicates less than 50% inhibition at 10 μM) | A11: inhibition of radioligand binding, mouse urotensin (mUR2) [9]: − (“−” indicates less than 50% inhibition at 10 μM) | A4: inhibition of radioligand binding, human melanocortin (MC4) [10]: − (“−” indicates less than 50% inhibition at 10 μM) | A2: inhibition of radioligand binding, human κ-opioid (KOP) [11]: − (“−” indicates less than 50% inhibition at 10 μM)

CSC1OC(COCc2ccccc2)C(O)C(OCc2ccc3ccccc3c2)C1NC(=O)CN (stereo not drawn) [compound 301]
A10: inhibition of radioligand binding, human opioid (ORL1) [1]: − (“−” indicates less than 50% inhibition at 10 μM) | A9: inhibition of radioligand binding, human neuropeptide Y (NPY-Y1) [2]: − (“−” indicates less than 50% inhibition at 10 μM) | A1: inhibition of radioligand binding, human δ-opioid (DOP) [3]: − (“−” indicates less than 50% inhibition at 10 μM) | A7: inhibition of radioligand binding, human μ-opioid (MOP) [4]: − (“−” indicates less than 50% inhibition at 10 μM) | A8: inhibition of radioligand binding, human neurokinin (NK1) [5]: + (“+” indicates greater than 50% inhibition at 10 μM) | A6: inhibition of radioligand binding, human melanin-concentrating hormone (MCH1) [6]: − (“−” indicates less than 50% inhibition at 10 μM) | A3: inhibition of radioligand binding, human melanocortin (MC3) [7]: − (“−” indicates less than 50% inhibition at 10 μM) | A5: inhibition of radioligand binding, human melanocortin (MC5) [8]: − (“−” indicates less than 50% inhibition at 10 μM) | A11: inhibition of radioligand binding, mouse urotensin (mUR2) [9]: − (“−” indicates less than 50% inhibition at 10 μM) | A4: inhibition of radioligand binding, human melanocortin (MC4) [10]: − (“−” indicates less than 50% inhibition at 10 μM) | A2: inhibition of radioligand binding, human κ-opioid (KOP) [11]: − (“−” indicates less than 50% inhibition at 10 μM)

— patent publication US20080009418A1, “Selective Inhibitors” (Alchemia LTD., priority 2004, published 2008)
